Residues, ends and D or L forms follow the SMILES beside them. *: point of attachment. Cbz = O=C(OCc1ccccc1)*; CH2F = FC*
Tested on: U937 leukemia cells
Assay: Cell death mechanism (DNA laddering, immunoblotting, electron microscopy)
Format: cell-based
Procedure: (A) Trypan blue staining of U937 leukemia cells showing percentage of dead cells (trypan blue positive) over time. (B) U937 cells were untreated (Un) or treated with 1 μM AS1411 (1411) or control oligonucleotide (Ctrl) for 72 h. DNA was extracted, electrophoresed on an agarose gel and stained with ethidium bromide to probe DNA laddering. As a positive control, […] were treated with UV irradiation to induce apoptosis as previously described. […] (D) U937 cells treated as described for panel B, followed by protein extraction and immunoblotting (IB) to detect PARP cleavage and Caspase-3 activation. (E) DU145 prostate cancer cells were incubated with 10 μM of AS1411 for 24 h, or irradiated with UV (300 J/m^2 with UV Stratalinker 2400, Strategene), then cultured in fresh medium for 6 h. Assessment of cell death was carried out by flow cytometry to detect Annexin V-FITC binding and PI staining.

Structure (SMILES) | effect of pre-incubation on AS1411-induced cell death
NC(=O)c1cccc(N)c1 [3-aminobenzamide] | did not inhibit AS1411-induced cell death
COC(=O)CC[C@H](NC(=O)[C@H](CC(=O)OC)NC(=O)OCc1ccccc1)C(=O)N[C@H](C(=O)N[C@@H](CC(=O)OC)C(=O)CF)C(C)C [zDEVD-fmk] | did not inhibit AS1411-induced cell death
CC[C@H](C)[C@H](NC(=O)OCc1ccccc1)C(=O)N[C@@H](CCC(=O)OC)C(=O)N[C@H](C(=O)N[C@@H](CC(=O)OC)C(=O)CF)[C@@H](C)O [zIETD-fmk] (Cbz-IE(OMe)TD(OMe)-CH2F) | did not inhibit AS1411-induced cell death
COC(=O)CC[C@H](NC(=O)[C@H](CC(C)C)NC(=O)OCc1ccccc1)C(=O)N[C@@H](Cc1cnc[nH]1)C(=O)N[C@@H](CC(=O)OC)C(=O)CF [zLEHD-fmk] (Cbz-LE(OMe)HD(OMe)-CH2F) | did not inhibit AS1411-induced cell death
COC(=O)C[C@H](NC(=O)[C@H](C)NC(=O)[C@@H](NC(=O)OCc1ccccc1)C(C)C)C(=O)CF [zVAD-fmk] (Cbz-Val-Ala-Asp(OMe)-CH2F) | did not inhibit AS1411-induced cell death
